# Data reported in patent US6911453B2 (Aventis Pharma Deutschland GmbH, priority 2001, dated 2005).
# Where a name gives a salt, the structure may show the parent alone.
# Target: T1, NHE3 (Homo sapiens, UniProt P48764)
# T1 sequence (P48764 1-834): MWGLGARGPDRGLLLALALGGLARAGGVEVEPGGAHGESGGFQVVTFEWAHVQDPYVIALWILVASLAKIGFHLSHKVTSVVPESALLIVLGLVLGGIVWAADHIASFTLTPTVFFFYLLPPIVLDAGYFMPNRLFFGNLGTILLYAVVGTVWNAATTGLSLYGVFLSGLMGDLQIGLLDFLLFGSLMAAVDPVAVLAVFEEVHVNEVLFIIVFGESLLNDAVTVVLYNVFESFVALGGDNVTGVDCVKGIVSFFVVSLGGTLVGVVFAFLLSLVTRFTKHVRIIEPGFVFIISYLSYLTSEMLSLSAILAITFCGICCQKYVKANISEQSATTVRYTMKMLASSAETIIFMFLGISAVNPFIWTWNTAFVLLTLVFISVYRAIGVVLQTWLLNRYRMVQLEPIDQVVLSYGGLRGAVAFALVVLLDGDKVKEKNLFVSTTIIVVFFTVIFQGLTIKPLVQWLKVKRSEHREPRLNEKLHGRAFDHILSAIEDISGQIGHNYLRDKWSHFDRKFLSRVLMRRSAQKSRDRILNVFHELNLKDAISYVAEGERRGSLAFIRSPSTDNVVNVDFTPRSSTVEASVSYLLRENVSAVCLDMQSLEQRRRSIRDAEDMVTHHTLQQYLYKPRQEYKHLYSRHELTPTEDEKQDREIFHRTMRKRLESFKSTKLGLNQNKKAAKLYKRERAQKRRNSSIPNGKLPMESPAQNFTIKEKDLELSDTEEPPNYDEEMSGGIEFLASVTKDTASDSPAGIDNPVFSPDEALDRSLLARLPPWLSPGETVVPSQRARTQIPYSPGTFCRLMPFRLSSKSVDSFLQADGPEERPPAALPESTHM
# Experiment: Recovery of intracellular pH (pHi) after acidification, BCECF fluorescence, NHE3
# Format: cell-based
# Conditions: inhibition of pH recovery after intracellular acidification; rate recorded for three minutes; BCECF-loaded cells
# Description: In this test, the recovery in the intracellular pH (pHi) after an acidification is ascertained, which is initiated if the NHE is capable of functioning, even under bicarbonate-free conditions. For this purpose, the pHi was determined using the pH-sensitive fluorescent dye BCECF (Calbiochem, the precursor BCECF-AM is employed).
# The cells were initially loaded with BCECF. The BCECF fluorescence was determined in a “Ratio Fluorescence Spectrometer” (Photon Technology International, South Brunswick, N.J., USA) at excitation wavelengths of 505 and 440 nm and an emission wavelength of 535 nm and converted into the pHi using calibration curves. The cells were incubated in NH4Cl buffer (pH 7.4) (NH4Cl buffer: 115 mM NaCl, 20 mM NH4Cl, 5 mM KCl, 1 mM CaCl2, 1 mM MgSO4, 20 mM Hepes, 5 mM glucose, 1 mg/ml BSA; a pH of 7.4 is adjusted with 1 M NaOH) even during the BCECF loading. The intracellular acidification was induced by adding 975 μl of an NH4Cl-free buffer (see below) to 25 μl aliquots of the cells incubated in NH4Cl buffer. The subsequent rate of pH recovery was recorded for two minutes with NHE1, five minutes with NHE2 and three minutes with NHE3. To calculate the inhibitory potency of the tested substances, the cells were initially investigated in buffers with which a complete or absolutely no pH recovery took place. For complete pH recovery (100%), the cells were incubated in Na^+-containing buffer (133.8 mM NaCl, 4.7 mM KCl, 1.25 mM CaCl2, 1.25 mM MgCl2, 0.97 mM Na2HPO4, 0.23 mM NaH2PO4, 5 mM Hepes, 5 mM glucose, a pH of 7.0 is adjusted with 1 M NaOH). To determine the 0% value, the cells were incubated in an Na^+-free buffer (133.8 mM choline chloride, 4.7 mM KCl, 1.25 mM CaCl2, 1.25 mM MgCl2, 0.97 mM K2HPO4, 0.23 mM KH2PO4, 5 mM Hepes, 5 mM glucose, a pH of 7.0 is adjusted with 1 M NaOH). The substances to be tested were made up in the Na^+-containing buffer. The recovery of the intracellular pH at each test concentration of a substance was expressed as a percentage of the maximum recovery. The IC50 value for the particular substance for the individual NHE subtypes was calculated from the pH recovery percentages using the Sigma-Plot program.
row,SMILES,IC50 [µM]
1,"CN1Cc2c(Cl)cc(Cl)cc2C(c2ccc(S(N)(=O)=O)cc2)C1 (single isomer, unassigned; (+)) [Example 2a, (+)-4-(6,8-Dichloro-2-methyl-1,2,3,4-tetrahydro-isoquinolin-4-yl)-benzene-sulfonamide hydrochloride]",0.082
2,"CN1Cc2c(Cl)cc(Cl)cc2C(c2cccc(S(N)(=O)=O)c2)C1 (single isomer, unassigned; (+)) [Example 2b, (+)-3-(6,8-Dichloro-2-methyl-1,2,3,4-tetrahydro-isoquinolin-4-yl)-benzene-sulfonamide hydrochloride]",0.026
3,"CC(=O)Nc1ccc(C2CN(C)Cc3c(Cl)cc(Cl)cc32)cc1.Cl (stereo not shown) [Example 1a, N-[4-(6,8-Dichloro-2-methyl-1,2,3,4-tetrahydro-isoquinolin-4-yl)-phenyl]-acetamide-hydrochloride]",0.075
4,"CN1Cc2c(Cl)cc(Cl)cc2C(c2ccc(C(=O)O)cc2)C1 (stereo not shown) [Example 6, 4-(6,8-Dichloro-2-methyl-1,2,3,4-tetrahydro-isoquinolin-4-yl)-benzoic acid]",0.67
5,"CCNC(=O)c1ccc(C2CN(C)Cc3c(Cl)cc(Cl)cc32)cc1 (stereo not shown) [Example 7, 4-(6,8-Dichloro-2-methyl-1,2,3,4-tetrahydroisoquinolin-4-yl)-N-ethyl-benzamide, Trifluoroacetate]",0.25
6,"CN1Cc2c(Cl)cc(Cl)cc2C(c2ccc(N3CCOCC3)cc2)C1 (stereo not shown) [Example 10, 6,8-Dichloro-2-methyl-4-(4-morpholin-4-yl-phenyl)-1,2,3,4-tetrahydroisoquinoline, Trifluoroacetate]",1
7,"CN1Cc2c(Cl)cc(Cl)cc2C(c2ccc(N)cc2)C1 (stereo not shown) [Example 17, 4-(6,8-Dichloro-2-methyl-1,2,3,4-tetrahydro-isoquinolin-4-yl)-phenylamine, Hydrochloride]",0.049
8,"CC(=O)Nc1ccc(C2CN(C)Cc3c(C)cc(C)cc32)cc1 (stereo not shown) [Example 23, N-[4-(2,6,8-Trimethyl-1,2,3,4-tetrahydro-isoquinolin-4-yl)-phenyl]-acetamide]",1.51
9,"CC(=O)Nc1ccc(C2CN(C)Cc3c(Cl)cc(Br)cc32)cc1 (stereo not shown) [Example 24, N-[4-(6-Bromo-8-chloro-2-methyl-1,2,3,4-tetrahydro-isoquinolin-4-yl)-phenyl]-acetamide]",0.34
10,"CN1Cc2c(Cl)cc(Cl)cc2C(c2ccccc2N)C1 (stereo not shown) [Example 36, 2-(6,8-Dichloro-2-methyl-1,2,3,4-tetrahydro-isoquinolin-4-yl)-phenylamine]",0.274
11,"COC(=O)Nc1cccc(C2CN(C)Cc3c(Cl)cc(Cl)cc32)c1 (stereo not shown) [Example 207, [3-(6,8-Dichloro-2-methyl-1,2,3,4-tetrahydro-isoquinolin-4-yl)-phenyl]-carbamic acid methyl Ester—Hydrochloride Salt]",0.186

# Continued, values first:
row,IC50 [µM],SMILES
1,0.252,"CNC(=O)N(C)c1cccc(C2CN(C)Cc3c(Cl)cc(Cl)cc32)c1 (single isomer, unassigned; (+)) [Example 199]"
2,0.814,"CCNC(=O)Nc1ccc(C2CN(C)Cc3c(Cl)cc(Cl)cc32)cc1 (stereo not shown) [Example 21, 1-[4-(6,8-Dichloro-2-methyl-1,2,3,4-tetrahydro-isoquinolin-4-yl)-phenyl]-3-ethylurea]"
3,0.318,"CN1Cc2c(Cl)cc(Cl)cc2C(c2ccc(O)c(C(=O)O)c2)C1 (stereo not shown) [Example 29, 5-(6,8-Dichloro-2-methyl-1,2,3,4-tetrahydro-isoquinolin-4-yl)-2-hydroxy-benzoic acid]"
4,0.349,CN1Cc2c(Cl)cc(Cl)cc2C(c2ccc(NS(C)(=O)=O)cc2)C1 (stereo not shown) [Example 48]
5,0.215,CCC(=O)Nc1cccc(C2CN(C)Cc3c(Cl)cc(Cl)cc32)c1 (stereo not shown) [Example 51]
6,0.202,CC(=O)N1CCC(C(=O)Nc2cccc(C3CN(C)Cc4c(Cl)cc(Cl)cc43)c2)CC1 (stereo not shown) [Example 60]
7,0.507,CN1Cc2c(Cl)cc(Cl)cc2C(c2cccc(NS(=O)(=O)N(C)C)c2)C1 (stereo not shown) [Example 64]
8,0.73,"CNC(=S)Nc1ccccc1C1CN(C)Cc2c(Cl)cc(Cl)cc21 (stereo not shown) [Example 81, 1-[2-(6,8-Dichloro-2-methyl-1,2,3,4-tetrahydro-isoquinolin-4-yl)-phenyl]-3-methyl-thiourea, Trifluoroacetate]"
9,0.418,CN1Cc2c(Cl)cc(Cl)cc2C(c2ccc(NS(=O)(=O)C(F)(F)F)cc2)C1 (stereo not shown) [Example 87]
10,0.308,Cc1nc(S(=O)(=O)Nc2cccc(C3CN(C)Cc4c(Cl)cc(Cl)cc43)c2)cn1C (stereo not shown) [Example 97]
11,0.279,CN(C)CC(=O)Nc1ccc(C2CN(C)Cc3c(Cl)cc(Cl)cc32)cc1 (stereo not shown) [Example 113]
12,0.682,CN1Cc2c(Cl)cc(Cl)cc2C(c2ccc(NC(=O)c3cc[nH]c3)cc2)C1 (stereo not shown) [Example 119]
13,0.695,CN1Cc2c(Cl)cc(Cl)cc2C(c2cccc(NC(=O)C3CCN(S(C)(=O)=O)CC3)c2)C1 (stereo not shown) [Example 144]
14,0.024,CN1Cc2c(Cl)cc(Cl)cc2C(c2cccc(NC(=O)c3cn[nH]c3)c2)C1 (stereo not shown) [Example 146]
15,0.602,CN1Cc2c(Cl)cc(Cl)cc2C(c2cccc(NC(=O)N3CCCCC3)c2)C1 (stereo not shown) [Example 153]
16,0.597,CN1Cc2c(Cl)cc(Cl)cc2C(c2ccc(NC(=O)N3CCOCC3)cc2)C1 (stereo not shown) [Example 183]

# System: not given
# Experiment: not given
# Conditions: not given
row,SMILES,melting point
1,CC(=O)Nc1ccc(C2CN(C)Cc3c(Cl)cc(Cl)cc32)cc1 (stereo not shown),205 to 206 °C
2,"CC(=O)Nc1ccc(C2CN(C)Cc3c(Cl)cc(Cl)cc32)cc1.Cl (stereo not shown) [Example 1a, N-[4-(6,8-Dichloro-2-methyl-1,2,3,4-tetrahydro-isoquinolin-4-yl)-phenyl]-acetamide-hydrochloride]",125 °C (dec.)
3,"CCNC(=O)Nc1ccc(C2CN(C)Cc3c(Cl)cc(Cl)cc32)cc1 (stereo not shown) [Example 21, 1-[4-(6,8-Dichloro-2-methyl-1,2,3,4-tetrahydro-isoquinolin-4-yl)-phenyl]-3-ethylurea]",218 to 220 °C
4,CN1Cc2c(Cl)cc(Cl)cc2C(c2ccc(Cl)c(S(N)(=O)=O)c2)C1 (stereo not shown) [Example 99],122 °C
